The results in this text go back to patent US8138119B2, “Alkoxyalkyl spirocyclic tetramic acids and tetronic acids” (Bayer Cropscience AG, priority 2005, dated 2012).

Data set [1] relates to cereal. Put plainly: Profiling test, herbicidal post-emergence action with safener: container trials with cereal in a greenhouse, Mefenpyr 1 day prior to herbicide application. In kind it is in vivo. As to conditions: without safener. How it is done:
Seeds of monocotyledonous and dicotyledonous weed and crop plants are placed in sandy loam soil in wood fibre pots or in plastic pots, covered with soil and cultivated in a greenhouse, during the vegetation period also outdoors outside of the greenhouse, under good growth conditions. 2-3 weeks after sowing, the test plants are treated at the one- to three-leaf stage. The test compounds, formulated as wettable powders (WP) or liquid (EC), are, in various dosages with a water application rate of 300 l/ha (converted), with wetting agent (0.2 to 0.3%) added, sprayed onto the plants and the surface of the soil. […]
(§1) If it is additionally to be tested as to whether safeners can improve the plant compatibility of test substances in the case of crop plants, the following options are used for applying the safener: • seeds of the crop plants are, before sowing, dressed with the safener substance (the amount of safener stated in percent, based on the weight of the seed) • before the application of the test substances, the proper plants are sprayed with the safener at a certain application rate per hectare (usually 1 day before the application of the test substances) • the safener is applied together with the test substance as a tank mix (the amount of safener stated in g/ha or as a ratio, based on the herbicide).
(§2) By comparing the effect of the test substances on crop plants without or with safener treatment, it is possible to assess the effect of the safener substance.

The subject of data set [2] is maize. Put plainly: Profiling test, herbicidal pre-emergence action with safener: container trials with maize in the greenhouse, Ex. II-e-5 1 day prior to herbicide application. As to conditions: 28 days after application, without safener. In kind it is in vivo. The protocol:
Seeds of monocotyledonous and dicotyledonous weed and crop plants are placed in sandy loam soil in wood fibre pots or in plastic pots and covered with soil. The pots are watered slightly, and the soil surface is then treated with various dosages of the test compounds, formulated as wettable powders (WP) or liquid (EC), at a water application rate of 300 l/ha (converted). The pots with the plants are cultivated in a greenhouse, during the vegetation period also outdoors outside of the greenhouse, under good growth conditions. 3-4 weeks after sowing and the treatment of the pots, the activity of the preparations is rated visually in comparison to untreated controls (herbicidal activity in percent (%): 100% activity=the plants have died, 0% activity=like control plants).
as §1, with “pots of crop” for “proper”
as §2

Data set [3] in a line: Determination of the log P values by HPLC on a reversed-phase column (C18). It counts as physicochemical. As to conditions: for chromatographic logP: reversed-phase HPLC column (C18). The protocol:
The log P values given in the table were determined in accordance with EEC Directive 79/831 Annex V.A8 by HPLC (High Performance Liquid Chromatography) on a reversed-phase column (C18). Temperature: 43° C.
Mobile phases for the determination in the acidic range (pH 2.3): 0.1% aqueous phosphoric acid, acetonitrile; linear gradient from 10% acetonitrile to 90% acetonitrile
Calibration was carried out using unbranched alkan-2-ones (with 3 to 16 carbon atoms) whose log P values are known (determination of the log P values by the retention times using linear interpolation between two successive alkanones).

[4] abbreviates: 28 days after application, 12.5 g of a.i./ha.
Where [5] appears, read: 28 days after application, 25 g of a.i./ha.
Setting [6] is: 28 days after application, 11 g of a.i./ha.
[7] abbreviates: 28 days after application, 23 g of a.i./ha.
The mark [8] stands for this setting: 28 days after application, 46 g of a.i./ha.
Setting [9] is: 28 days after application, 91 g of a.i./ha.
Where [10] appears, read: compounds of the formula (I-2-a), m.p. ° C./log P.
Where [11] appears, read: pH 2.3, HPLC reversed-phase column (C18), acidic range (pH 2.3), 43° C.
Where [12] appears, read: HPLC reversed-phase column (C18), acidic range (pH 2.3), 43° C.

Each structure is given as a SMILES string.

`CCc1cc(C)cc(Br)c1C1=C(O)C2(CCC(COC)CC2)NC1=O` (single isomer, unassigned) [Example I-1-a-3]: the “Summer barley observed (%)” value is 20% in data set [1] (setting [4]) and 60% in data set [1] (setting [5]). The “Summer wheat observed (%)” value in data set [1] (10 days after application, 12.5 g of a.i./ha) was found to be 20%; in data set [1] (10 days after application, 25 g of a.i./ha), 40%.

Turning to `CCc1cc(Cl)cc(OC)c1C1=C(O)C2(CCC(COC)CC2)NC1=O` (single isomer, unassigned) [Example I-1-a-4], the “Maize - Arsenal observed (%)” value in data set [2] (12.5 g of a.i./ha) stood at 40%; in data set [2] (25 g of a.i./ha), 65%. The “Summer barley observed (%)” value in data set [1] (setting [5]) was found to be 50%.

As to `CCc1cc(C)cc(Br)c1C1=C(O)C2(CCCC(COC)C2)NC1=O` (single isomer, unassigned) [Example I-1-a-8], the “Summer wheat observed (%)” value in data set [1] (setting [4]) amounted to 90%; in data set [1] (setting [5]), 95%.

On to `CCCOCC1CCCC2(C1)NC(=O)C(c1c(Br)cc(C)cc1CC)=C2O` (single isomer, unassigned) [Example I-1-a-12], for which the “Summer barley observed (%)” value in data set [1] (setting [6]) is 10%; in data set [1] (setting [7]), 20%; in data set [1] (setting [8]) it was 30%; in data set [1] (setting [9]) it was 60%. Besides, the “Summer wheat observed (%)” value is 10% in data set [1] (setting [6]), 15% in data set [1] (setting [7]), 20% in data set [1] (setting [8]) and 30% in data set [1] (setting [9]).

Regarding `CCc1cc(Cl)cc(OC)c1C1=C(OC(=O)COC)C2(CCCC(COC)C2)NC1=O` (single isomer, unassigned) [Example I-1-b-6], the “Summer barley observed (%)” value in data set [1] (setting [4]) came to 70%. Turning to `CCOC(=O)OC1=C(c2c(Br)cc(C)cc2CC)C(=O)NC12CCC(COC)CC2` (single isomer, unassigned) [Example I-1-c-6], the “Maize - Cecilia observed (%)” value in data set [2] (12.5 g of a.i./ha) was 60%.

Take `CCOC(=O)OC1=C(c2c(CC)cc(Cl)cc2OC)C(=O)NC12CCC(COC)CC2` (single isomer, unassigned) [Example I-1-c-7]: in data set [2] (25 g of a.i./ha), the “Maize - Arsenal observed (%)” value stood at 60%. On to `CCOC(=O)OC1=C(c2c(C)cc(C)cc2C)C(=O)NC12CCCC(COC)C2` (single isomer, unassigned) [Example I-1-c-9], for which the “Maize - Cecilia observed (%)” value in data set [2] (100 g of a.i./ha) is 50%.

In general, log P refers to a log measure of how a compound divides between an organic and an aqueous phase. As for `COCC1CCC2(CC1)OC(=O)C(c1cc(C)c(C)cc1C)=C2O` (centres unmarked) [Example I-2-a-11], in data set [3] (setting [10]), the “log P” value is “oil/2.72”.

In the case of `COCC1CCC2(CC1)OC(=O)C(c1c(C)cc(C)cc1C)=C2O` (centres unmarked) [Example I-2-a-12], the lipophilicity (log P) in data set [3] (setting [10]) was “oil/2.69”. `CCc1cc(Br)cc(CC)c1C1=C(O)C2(CCC(COC)CC2)OC1=O` (centres unmarked) [Example I-2-a-13]: in data set [3] (setting [10]), the log partition coefficient (log P) is “oil/3.38”. As for `CCc1cc(C)cc(CC)c1C1=C(O)C2(CCC(COC)CC2)OC1=O` (centres unmarked) [Example I-2-a-14], the “log P” value in data set [3] (setting [10]) is on record as “oil/3.19”. On the same count and under the same terms, as for `COCCC1CCCC2(C1)OC(=O)C(c1cc(-c3ccc(Cl)cc3)ccc1C)=C2O` (centres unmarked) [Example I-2-a-18], the entry is “oil/3.75”; as for `COCCC1CCCC2(C1)OC(=O)C(c1c(C)cc(Br)cc1C)=C2O` (centres unmarked) [Example I-2-a-19], “oil/3.13”; as for `COCCC1CCCC2(C1)OC(=O)C(c1c(C)cc(Cl)cc1C)=C2O` (centres unmarked) [Example I-2-a-20], “oil/3.03”. Still for that read-out and setting: as for `COCCC1CCCC2(C1)OC(=O)C(c1cc(C)c(C)cc1C)=C2O` (centres unmarked) [Example I-2-a-21], the entry is “oil/2.96”.

Take `COCCC1CCCC2(C1)OC(=O)C(c1c(C)cc(C)cc1C)=C2O` (centres unmarked) [Example I-2-a-22]: the “log P” value in data set [3] (setting [10]) is “oil/2.94”. Regarding `CCc1cc(Br)cc(CC)c1C1=C(O)C2(CCCC(CCOC)C2)OC1=O` (centres unmarked) [Example I-2-a-23], the log partition coefficient (log P) in data set [3] (setting [10]) is given as “oil/3.63”. On the same count and under the same terms, as for `CCc1cc(C)cc(CC)c1C1=C(O)C2(CCCC(CCOC)C2)OC1=O` (centres unmarked) [Example I-2-a-24], the entry is “oil/3.44”. Take `COCCC1CCCC2(C1)OC(=O)C(c1cc(C)c(-c3ccc(Cl)cc3)cc1C)=C2O` (centres unmarked) [Example I-2-a-25]: in data set [3] (setting [10]), the log partition coefficient (log P) is on record as “oil/4.03”. The same measure, in the same setting: the value for `COCCC1CCCC2(C1)OC(=O)C(c1cc(-c3ccc(Cl)cc3)ccc1Cl)=C2O` (centres unmarked) [Example I-2-a-26] was “oil/3.68”; that for `COCCC1CCC2(CC1)OC(=O)C(c1cc(-c3ccc(Cl)cc3)ccc1C)=C2O` (centres unmarked) [Example I-2-a-28] was “oil/3.71”. Same read-out and setting: the value for `COCCC1CCC2(CC1)OC(=O)C(c1c(C)cc(Br)cc1C)=C2O` (centres unmarked) [Example I-2-a-29] was “oil/3.10”; that for `COCCC1CCC2(CC1)OC(=O)C(c1c(C)cc(Cl)cc1C)=C2O` (centres unmarked) [Example I-2-a-30] was “oil/3.00”.

With `COCCC1CCC2(CC1)OC(=O)C(c1cc(C)c(C)cc1C)=C2O` (centres unmarked) [Example I-2-a-31], the “log P” value in data set [3] (setting [10]) is listed as “oil/2.92”.

In the case of `CCc1cc(Br)cc(CC)c1C1=C(O)C2(CCC(CCOC)CC2)OC1=O` (centres unmarked) [Example I-2-a-32], the lipophilicity (log P) in data set [3] (setting [10]) was “oil/3.59”.

With `CCc1cc(C)cc(CC)c1C1=C(O)C2(CCC(CCOC)CC2)OC1=O` (centres unmarked) [Example I-2-a-33], the “log P” value in data set [3] (setting [10]) is reported as “oil/3.40”. On the same count and under the same terms, the value for `COCCC1CCC2(CC1)OC(=O)C(c1cc(-c3ccc(Cl)cc3)ccc1Cl)=C2O` (centres unmarked) [Example I-2-a-35] was “oil/3.67”. For orientation: chromatographic logP means lipophilicity estimated from chromatographic retention. Consider `COCCC1CCC2(CC1)OC(=O)C(c1c(C)cc(C)cc1C)=C2OC(=O)C(C)C` (centres unmarked) [Example I-2-b-1], for which the chromatographic logP in data set [3] (setting [11]) worked out at 4.79. On the same count and under the same terms, the value for `CCc1cc(C)cc(CC)c1C1=C(OC(=O)C(C)C)C2(CCC(CCOC)CC2)OC1=O` (centres unmarked) [Example I-2-b-2] was 5.43. Take `CCOC(=O)OC1=C(c2cc(-c3ccc(Cl)cc3)ccc2C)C(=O)OC12CCC(COC)CC2` (centres unmarked) [Example I-2-c-2]: the lipophilicity (log P) in data set [3] (setting [12]) is 4.95.

Consider `CCOC(=O)OC1=C(c2c(CC)cc(C)cc2CC)C(=O)OC12CCCC(CCOC)C2` (centres unmarked) [Example I-2-c-3], for which, in data set [3] (setting [12]), the “log P” value worked out at 4.97.

On to `CCOC(=O)C1(OC(=O)Cc2c(C)cc(C)cc2C)CCC(CCOC)CC1` (centres unmarked) [III-1], for which the “log P” value in data set [3] (cis/trans isomer mixture, HPLC reversed-phase column (C18), acidic range (pH 2.3), 43° C.) came to 5.13. Further, the chromatographic logP in data set [3] (pH 2.3, cis/trans isomer mixture, HPLC reversed-phase column (C18), acidic range (pH 2.3), 43° C.) was found to be 5.01.
